# Legend:
# Test in all cases: Alanyl-peptidase detection on agar medium (Example 13)
# Type in all cases: cell-based
# Conditions in all cases: 25 mg/l
# [1] = tested on: Corynebacterium Pseudodiphteriticum
# Description: (§1) The detection media were prepared by mixing 3.6 g of biogelytone (bioMérieux), 2.16 g of meat extract (bioMérieux), 1.26 g of malt extract (bioMérieux), 5.76 g of NaCl (Merck) and 10.8 g of agar (bioMérieux).
# (§2) 720 ml of osmosed water were added to the powder, and the mixture was then melted in a waterbath at […]. The product was separated into two flasks, each of 360 ml. Autoclaving was carried out at 121° C. for 15 min and the product was cooled to […]. in a waterbath.
# (§3) L-Alanyl-7-amino-4-methylcoumarin (Ala-AMC, Bachem) was then added to the first flask as a control, at the final concentration of 50 mg/l, and L-alanyl-9-aminobenzo[a]phenoxazin-5-one (Ala-ABP, substrate of the invention obtained in Example 2, in which the amino acid is L-alanine), was then added to the second flask at the final concentration of 25 mg/l.
# (§4) The size of the colonies, their coloration and also the intensity of this coloration were noted.
# Edwardsiella tarda = tested on: Edwardsiella tarda
# Description: as §1, §2, §3, §4
# Listeria innocua = tested on: Listeria innocua
# Description: as §1, §2, §3, §4
# Candida albicans = tested on: Candida albicans
# Description: as §1, §2, §3, §4
# Enterococcus faecalis = tested on: Enterococcus faecalis
# Description: as §1, §2, §3, §4
# Pseudomonas aeruginosa = tested on: Pseudomonas aeruginosa; as to color of the colony: key: B corresponds to fluorescent blue; R corresponds to pink
# Description: as §1, §2, §3, §4
# Proteus mirabilis = tested on: Proteus mirabilis
# Description: as §1, §2, §3, §4
# Klebsiella pneumoniae = tested on: Klebsiella pneumoniae
# Description: as §1, §2, §3, §4
# Staphylococcus aureus = tested on: Staphylococcus aureus
# Description: as §1, §2, §3, §4
# Candida glabrata = tested on: Candida glabrata
# Description: as §1, §2, §3, §4
# Streptococcus pyogenes = tested on: Streptococcus pyogenes
# Description: as §1, §2, §3, §4
# [2] = tested on: Staphylococcus epidermidis
# Description: as §1, §2, §3, §4
# Hafnia alvei = tested on: Hafnia alvei
# Description: as §1, §2, §3, §4
# Streptococcus agalactiae = tested on: Streptococcus agalactiae
# Description: as §1, §2, §3, §4
# Enterococcus faecium = tested on: Enterococcus faecium
# Description: as §1, §2, §3, §4
# [3] = tested on: Staphylococcus saprophyticus
# Description: as §1, §2, §3, §4
# Escherichia coli = tested on: Escherichia coli
# Description: as §1, §2, §3, §4
# Saccharomyces cerevisiae = tested on: Saccharomyces cerevisiae
# Description: as §1, §2, §3, §4
# Candida krusei = tested on: Candida krusei
# Description: as §1, §2, §3, §4
# Enterobacter cloacae = tested on: Enterobacter cloacae
# Description: as §1, §2, §3, §4
# Acinetobacter baumanii = tested on: Acinetobacter baumanii
# Description: as §1, §2, §3, §4
# Serratia marcescens = tested on: Serratia marcescens
# Description: as §1, §2, §3, §4
# Bacillus subtilis = tested on: Bacillus subtilis
# Description: as §1, §2, §3, §4
# Salmonella typhimurium = tested on: Salmonella typhimurium
# Description: as §1, §2, §3, §4
# Serratia liquefaciens = tested on: Serratia liquefaciens
# Description: as §1, §2, §3, §4
substance,measurement,setting,value
L-alanyl-9-aminobenzo[a]phenoxazin-5-one [Ala-ABP],growth diameter,[1]; 24 h,0 mm
same,growth diameter,[1]; 48 h,0 mm
same,color of the colony,Edwardsiella tarda; 24 h,R
same,growth diameter,Edwardsiella tarda; 24 h,0.5 mm
same,"intensity of coloration, scale 0 to 4",Edwardsiella tarda; 24 h,1
same,color of the colony,Edwardsiella tarda; 48 h,R
same,growth diameter,Edwardsiella tarda; 48 h,0.7 mm
same,"intensity of coloration, scale 0 to 4",Edwardsiella tarda; 48 h,3
same,growth diameter,Listeria innocua; 24 h,0.2 mm
same,growth diameter,Listeria innocua; 48 h,0.3 mm
same,growth diameter,Candida albicans; 24 h,0.3 mm
same,color of the colony,Candida albicans; 48 h,R
same,growth diameter,Candida albicans; 48 h,0.5 mm
same,"intensity of coloration, scale 0 to 4",Candida albicans; 48 h,2
same,growth diameter,Enterococcus faecalis; 24 h,0.3 mm
same,growth diameter,Enterococcus faecalis; 48 h,0.3 mm
same,color of the colony,Pseudomonas aeruginosa; 24 h,R
same,growth diameter,Pseudomonas aeruginosa; 24 h,0.3 mm
same,"intensity of coloration, scale 0 to 4",Pseudomonas aeruginosa; 24 h,1.7
same,color of the colony,Pseudomonas aeruginosa; 48 h,R
same,growth diameter,Pseudomonas aeruginosa; 48 h,0.5 mm
same,"intensity of coloration, scale 0 to 4",Pseudomonas aeruginosa; 48 h,3
same,color of the colony,Proteus mirabilis; 24 h,R
same,growth diameter,Proteus mirabilis; 24 h,1.7 mm
same,"intensity of coloration, scale 0 to 4",Proteus mirabilis; 24 h,0.5
same,color of the colony,Proteus mirabilis; 48 h,R
same,growth diameter,Proteus mirabilis; 48 h,1.7 mm
same,"intensity of coloration, scale 0 to 4",Proteus mirabilis; 48 h,1.5
same,color of the colony,Klebsiella pneumoniae; 24 h,R
same,growth diameter,Klebsiella pneumoniae; 24 h,1 mm
same,"intensity of coloration, scale 0 to 4",Klebsiella pneumoniae; 24 h,3
same,color of the colony,Klebsiella pneumoniae; 48 h,R
same,growth diameter,Klebsiella pneumoniae; 48 h,1.5 mm
same,"intensity of coloration, scale 0 to 4",Klebsiella pneumoniae; 48 h,3
same,growth diameter,Staphylococcus aureus; 24 h,0.1 mm
same,growth diameter,Staphylococcus aureus; 48 h,0.3 mm
same,growth diameter,Candida glabrata; 24 h,0.1 mm
same,growth diameter,Candida glabrata; 48 h,0.3 mm
same,growth diameter,Streptococcus pyogenes; 24 h,0.1 mm
same,growth diameter,Streptococcus pyogenes; 48 h,0.2 mm
same,growth diameter,[2]; 24 h,0.1 mm
same,growth diameter,[2]; 48 h,0.1 mm
same,color of the colony,Hafnia alvei; 24 h,R
same,growth diameter,Hafnia alvei; 24 h,0.5 mm
same,"intensity of coloration, scale 0 to 4",Hafnia alvei; 24 h,0.5
same,color of the colony,Hafnia alvei; 48 h,R
same,growth diameter,Hafnia alvei; 48 h,0.5 mm
same,"intensity of coloration, scale 0 to 4",Hafnia alvei; 48 h,1.5
same,growth diameter,Streptococcus agalactiae; 24 h,0.1 mm
same,growth diameter,Streptococcus agalactiae; 48 h,0.2 mm
same,growth diameter,Enterococcus faecium; 24 h,0.2 mm
same,growth diameter,Enterococcus faecium; 48 h,0.3 mm
same,growth diameter,[3]; 24 h,0.1 mm
same,growth diameter,[3]; 48 h,0.3 mm
same,color of the colony,Escherichia coli; 24 h,R
same,growth diameter,Escherichia coli; 24 h,1.7 mm
same,"intensity of coloration, scale 0 to 4",Escherichia coli; 24 h,1
same,color of the colony,Escherichia coli; 48 h,R
same,growth diameter,Escherichia coli; 48 h,1.8 mm
same,"intensity of coloration, scale 0 to 4",Escherichia coli; 48 h,1
same,growth diameter,Saccharomyces cerevisiae; 24 h,0 mm
same,growth diameter,Saccharomyces cerevisiae; 48 h,0.2 mm
same,growth diameter,Candida krusei; 24 h,0.5 mm
same,growth diameter,Candida krusei; 48 h,1 mm
same,color of the colony,Enterobacter cloacae; 24 h,R
same,growth diameter,Enterobacter cloacae; 24 h,0.7 mm
same,"intensity of coloration, scale 0 to 4",Enterobacter cloacae; 24 h,1.5
same,color of the colony,Enterobacter cloacae; 48 h,R
same,growth diameter,Enterobacter cloacae; 48 h,0.7 mm
same,"intensity of coloration, scale 0 to 4",Enterobacter cloacae; 48 h,2
same,color of the colony,Acinetobacter baumanii; 24 h,R
same,growth diameter,Acinetobacter baumanii; 24 h,1.7 mm
same,"intensity of coloration, scale 0 to 4",Acinetobacter baumanii; 24 h,3
same,color of the colony,Acinetobacter baumanii; 48 h,R
same,growth diameter,Acinetobacter baumanii; 48 h,1.7 mm
same,"intensity of coloration, scale 0 to 4",Acinetobacter baumanii; 48 h,3
same,color of the colony,Serratia marcescens; 24 h,R
same,growth diameter,Serratia marcescens; 24 h,0.5 mm
same,"intensity of coloration, scale 0 to 4",Serratia marcescens; 24 h,2
same,color of the colony,Serratia marcescens; 48 h,R
same,growth diameter,Serratia marcescens; 48 h,1 mm
same,"intensity of coloration, scale 0 to 4",Serratia marcescens; 48 h,3
same,growth diameter,Bacillus subtilis; 24 h,0.1 mm
same,growth diameter,Bacillus subtilis; 48 h,0.5 mm
same,color of the colony,Salmonella typhimurium; 24 h,R
same,growth diameter,Salmonella typhimurium; 24 h,1 mm
same,"intensity of coloration, scale 0 to 4",Salmonella typhimurium; 24 h,0.5
same,color of the colony,Salmonella typhimurium; 48 h,R
same,growth diameter,Salmonella typhimurium; 48 h,1.5 mm
same,"intensity of coloration, scale 0 to 4",Salmonella typhimurium; 48 h,1
same,color of the colony,Serratia liquefaciens; 24 h,R
same,growth diameter,Serratia liquefaciens; 24 h,0.7 mm
same,"intensity of coloration, scale 0 to 4",Serratia liquefaciens; 24 h,3
same,color of the colony,Serratia liquefaciens; 48 h,R
same,growth diameter,Serratia liquefaciens; 48 h,1.3 mm
same,"intensity of coloration, scale 0 to 4",Serratia liquefaciens; 48 h,3

# Reference: US7695930B2, “Method for the detection, identification and/or quantification of microoganisms with peptidase activity using phenoxazinone derivatives as enzyme substrates” (Biomerieux, priority 2003, dated 2010)
